In patent US8507472B2 (priority 2010, dated 2013):

Legend:
Venturia inaequalis = test: Venturia test (apple)/protective; type: in vivo; conditions: 100 ppm active compound, protective, evaluation 10 days after inoculation
Outline: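 Young apple plants sprayed protectively with compound (in acetone/dimethylacetamide with alkylaryl polyglycol ether, diluted in water) at the stated rate, then inoculated with V. inaequalis conidia once dry. Held 1 day at ~20° C, 100% humidity, then greenhouse ~21° C, ~90% humidity; efficacy scored 10 days post-inoculation (0% = control, 100% = no infection).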

Uromyces appendiculatus = test: Uromyces test (bean)/protective; type: in vivo; conditions: in vivo
Protocol: Solvents: 24.5 parts by weight of acetone
• 24.5 parts by weight of dimethylacetamide Emulsifier: 1 part by weight of alkylaryl polyglycol ether
To produce a suitable preparation of active compound, 1 part by weight of active compound is mixed with the stated amounts of solvents and emulsifier, and the concentrate is diluted with water to the desired concentration.
To test for protective activity, young plants are sprayed with the active compound preparation at the stated application rate. After the spray coating has dried on, the plants are inoculated with an aqueous spore suspension of the bean rust pathogen Uromyces appendiculatus and then remain in an incubation cabin at about 20° C. and 100% relative atmospheric humidity for 1 day.
The plants are then placed in a greenhouse at about 21° C. and a relative atmospheric humidity of about 90%.
Evaluation is carried out 10 days after the inoculation. 0% means an efficacy which corresponds to that of the control, whereas an efficacy of 100% means that no infection is observed.

Phytophthora infestans = type: in vivo; conditions: in vivo
Pyrenophora teres = Pyrenophora teres test (barley)/protective; type: in vivo; conditions: in vivo
Outline: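 Protective test: young barley plants sprayed at the stated rate with compound in DMF/alkylaryl polyglycol ether diluted with water, inoculated with P. teres spores 1 day later, kept 48 h at 100% rel. humidity and 22° C., then greenhouse at 80% and 20° C. Efficacy scored 7-9 days post-inoculation (0% = control, 100% = no infection).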

[1] = test system: Fusarium nivale (var. majus); test: Fusarium nivale (var. majus) test (wheat)/protective; type: in vivo; conditions: 1000 ppm active compound, protective, evaluation 5 days after inoculation
Protocol: (§1) Solvent: 49 parts by weight of N,N-dimethylacetamide
(§2) Emulsifier: 1 part by weight of alkylaryl polyglycol ether
(§3) To produce a suitable preparation of active compound, 1 part by weight of active compound is mixed with the stated amounts of solvent and emulsifier, and the concentrate is diluted with water to the desired concentration.
(§4) To test for protective activity, young plants are sprayed with the active compound preparation at the stated application rate.
After the spray coating has dried on, the plants are sprayed with spores of a spore suspension of Fusarium nivale (var. majus).
The plants are placed in a greenhouse chamber under a translucent incubation hood at 10° C. and 100% relative atmospheric humidity.
Evaluation is carried out 5 days after the inoculation. 0% means an efficacy which corresponds to that of the control, whereas an efficacy of 100% means that no infection is observed.

Puccinia triticina = Puccinia triticina test (wheat)/protective; type: in vivo; conditions: in vivo
Protocol: Solvent: 49 parts by weight of […]
as §2, §3, §4
After the spray coating has dried on, the plants are sprayed with spores of a spore suspension of Puccinia triticina. The plants remain in an incubation cabin at 20° C. and 100% relative atmospheric humidity for 48 hours.
The plants are placed in greenhouse at a temperature of about 20° C. and a relative atmospheric humidity of about 80%.
Evaluation is carried out 8 days after the inoculation. 0% means an efficacy which corresponds to that of the control, whereas an efficacy of 100% means that no infection is observed.

Fusarium graminearum [2] = type: in vivo; conditions: in vivo
Sphaerotheca fuliginea = test: Sphaerotheca test (cucumber)/protective; type: in vivo; conditions: in vivo
Outline: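 Protective test: young cucumber plants sprayed with compound (DMF/alkylaryl polyglycol ether concentrate diluted in water) at the stated rate, inoculated with S. fuliginea spores 1 day later, then kept in greenhouse at 23 °C, 70% RH. Efficacy scored 7 days post-inoculation; 0% equals untreated control, 100% means no infection.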

Septoria tritici = Septoria tritici test (wheat)/protective; type: in vivo; conditions: in vivo
Protocol: as §1, §2
To produce a suitable preparation of active compound, 1 part by weight of active compound is mixed with the stated amount of solvent and emulsifier, and the concentrate is diluted with water to the desired concentration.
To test for protective activity, young plants are sprayed with the active compound preparation at the stated application rate. After the spray coating has dried on, the plants are sprayed with a spore suspension of Septoria tritici. The plants remain in an incubation cabin at 20° C. and 100% relative atmospheric humidity for 48 hours. The plants are then placed under a translucent hood at 15° C. and 100% relative atmospheric humidity for a further 60 hours.
The plants are placed in a greenhouse at a temperature of about 15° C. and a relative atmospheric humidity of 80%.
Evaluation is carried out 21 days after the inoculation. 0% means an efficacy which corresponds to that of the control, whereas an efficacy of 100% means that no infection is observed.

Leptosphaeria nodorum = Leptosphaeria nodorum test (wheat)/protective; type: in vivo; conditions: in vivo
Outline: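 Young wheat plants were sprayed protectively, then inoculated 1 day later with L. nodorum spores and held 48 h at 100% humidity and 22° C. They were then kept in a greenhouse at 90% humidity and 22° C. Efficacy was scored 7-9 days post-inoculation, where 0% equals control and 100% means no infection.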

DON/AcDON production = test: microbe, parasite or virus in culture; type: cell-based, Fusarium graminearum; conditions: 7 days at 28° C.
Alternaria solani = test: Alternaria test (tomato)/protective; type: in vivo; conditions: in vivo
Outline: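 Young tomato plants were sprayed with compound (DMF/emulsifier formulation diluted in water) and inoculated with A. solani spores 1 day later. Plants were kept 24 h at 100% RH and 22 °C, then at 96% RH and 20 °C. Efficacy was scored 7 days post-inoculation, where 0% equals untreated control and 100% means no infection.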

Botrytis cinerea = test: Botrytis test (bean)/protective; type: in vivo; conditions: 100 ppm active compound, protective, evaluation 2 days after inoculation
Outline: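 Young bean plants sprayed at the stated rate with compound in acetone/dimethylacetamide plus alkylaryl polyglycol ether emulsifier, diluted in water. Once dry, each leaf got 2 agar pieces colonized by Botrytis cinerea; kept dark at about 20° C., 100% humidity. Infected area scored after 2 days; 0% = control, 100% = no infection.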

Fusarium graminearum [3] = test: microbe, parasite or virus in culture; type: cell-based; conditions: 50 μM

Compound	efficacy in % (Venturia inaequalis)	efficacy in % (Uromyces appendiculatus)	efficacy in % (Phytophthora infestans)	efficacy in % (Pyrenophora teres)	efficacy in % [1]	efficacy in % (Puccinia triticina)	efficacy in % (Fusarium graminearum [2])	efficacy in % (Sphaerotheca fuliginea)	efficacy in % (Septoria tritici)	efficacy in % (Leptosphaeria nodorum)	% inhibition of DON/AcDON at 50 μM (DON/AcDON production)	efficacy in % (Alternaria solani)	efficacy in % (Botrytis cinerea)	% inhibition of the fungal growth of Fusarium graminearum at 50 μM (Fusarium graminearum [3])
O=C(Nc1cc(-c2c(-c3ccsc3)nn3c2CCCC3)ccn1)C1CC1 [Example 65]	96%	95%	90%	95%	100%	86%	83%	100%	90%	94%	100%	100%	97%	100%
O=C(Nc1cc(-c2c(-c3ccc(F)cc3)nn3c2CCCC3)ccn1)c1ccccc1 [Example 32]	90%	96%	70%	78%	86%	89%	86%		100%	90%	99%	78%	98%	94%
CC(C)C(=O)Nc1cc(-c2c(-c3ccsc3)nn3c2CCCC3)ccn1 [Example 63]	99%	75%	95%	95%	83%	86%	83%	93%	100%	94%	100%	100%	94%	100%
COCC(=O)Nc1cc(-c2c(-c3ccc(F)cc3)nn3c2CCCC3)ccn1 [Example 22]	76%	94%	90%	95%	86%	75%	100%	90%	86%	80%	100%	95%	89%	97%
CC(=O)Nc1cc(-c2c(-c3ccc(F)cc3)nn3c2CCCC3)ccn1 [Example 15]	94%	94%	95%	100%	100%	94%	100%	98%	100%	95%	99%	100%	82%	88%
COCC(=O)Nc1cc(-c2c(-c3ccccc3)nn3c2CCCC3)ccn1 [Example 23]	98%	95%	80%	95%	86%	75%	88%	89%	86%	90%	100%	95%	100%	97%
C[C@H](O)C(=O)Nc1cc(-c2c(-c3ccc(F)cc3)nn3c2CCCC3)ccn1 [Example 24]	83%	91%	90%	95%	100%	100%	100%	94%	100%	90%	99%	95%	76%	74%
